Measurements as given in patent publication US12594276B2, “Inhibitors of human immunodeficiency virus replication” (ViiV Healthcare UK (No.5) Limited, priority 2024, dated 2026).

These compounds were tested on recombinant NL4-3 virus (nef section replaced with Renilla luciferase gene) in MT-2 cells (assay: HIV cell culture assay (antiviral activity, luciferase readout)). Conditions: Renilla, NL43, MT-2 cells infected for 4-5 days with recombinant NL4-3 Renilla luciferase virus.
Format: cell-based
Procedure: HIV cell culture assay—MT-2 cells, 293T cells and the proviral DNA clone of NL4-3 virus were obtained from the NIH AIDS Research and Reference Reagent Program. MT-2 cells were propagated in RPMI 1640 media supplemented with 10% heat inactivated fetal bovine serum (FBS), […]. The 293T cells were propagated in DMEM media supplemented with 10% heat inactivated FBS, […]. A recombinant NL4-3 proviral clone, in which a section of the nef gene was replaced with the Renilla luciferase gene, was used to make the reference virus used in these studies. The recombinant virus was prepared through transfection of the recombinant NL4-3 proviral clone into 293T cells using Transit-293 Transfection Reagent from Mirus Bio LLC (Madison, WI). Supernatant was harvested after 2-3 days and the amount of virus present was titered in MT-2 cells using luciferase enzyme activity as a marker by measuring luciferase enzyme activity. Luciferase was quantitated using the EnduRen Live Cell Substrate from Promega (Madison, WI). Antiviral activities of compounds toward the recombinant virus were quantified by measuring luciferase activity in MT-2 cells infected for 4-5 days with the recombinant virus in the presence of serial dilutions of the compound.
The 50% effective concentration (EC50) was calculated by using the exponential form of the median effect equation where (Fa)=1/[1+(ED50/drug conc.)m](Johnson V A, Byington R T. Infectivity Assay. In Techniques in HIV Research. ed. Aldovini A, Walker B D. 71-76. New York: Stockton Press. 1990). Curve fitting and analysis were performed with ActivityBase XE Runner software version 9.1.0.4 using model 203 (ID Business Solutions, LTD, Guildford, UK).
`Cc1cc(C2(F)CCC(F)(F)CC2)nc2nc([C@H](Cc3cc(F)cc(F)c3)NC(=O)Cn3nc(C(F)F)c4c3C(F)(F)[C@@H]3C[C@H]43)n(-c3ccc(Cl)c4c(NS(C)(=O)=O)nn(C[C@@H](C)N5CC(C)(C)OC(C)(C)C5)c34)c(=O)c12` (atropisomer, axis not shown; (P)) [Example 707, N-[(1S)-1-[(3P)-3-{4-chloro-3-methanesulfonamido-1-[(2R)-2-(2,2,6,6-tetramethylmorpholin-4-yl)propyl]-1H-indazol-7-yl}-5-methyl-4-oxo-7-(1,4,4-trifluorocyclohexyl)-3H,4H-pyrido[2,3-d]pyrimidin-2-yl]-2-(3,5-difluorophenyl)ethyl]-2-[(2S,4R)-9-(difluoromethyl)-5,5-difluoro-7,8-diazatricyclo[4.3.0.0^2,^4]nona-1(6),8-dien-7-yl]acetamide] gave an EC50 of 0.038 nM.
`Cc1cc(C2(F)CCC(F)(F)CC2)nc2nc([C@H](Cc3cc(F)cc(F)c3)NC(=O)Cn3nc(C(F)F)c4c3C(F)(F)[C@@H]3C[C@H]43)n(-c3ccc(Cl)c4c(NS(C)(=O)=O)nn([C@H](C)C(=O)N5C[C@H](F)C[C@H](F)C5)c34)c(=O)c12` (atropisomer, axis not shown; (P)) [Example 755, N-[(1S)-1-[(3P)-3-{4-chloro-1-[(2R)-1-[(3R,5S)-3,5-difluoropiperidin-1-yl]-1-oxopropan-2-yl]-3-methanesulfonamido-1H-indazol-7-yl}-5-methyl-4-oxo-7-(1,4,4-trifluorocyclohexyl)-3H,4H-pyrido[2,3-d]pyrimidin-2-yl]-2-(3,5-difluorophenyl)ethyl]-2-[(2S,4R)-9-(difluoromethyl)-5,5-difluoro-7,8-diazatricyclo[4.3.0.0^2,^4]nona-1(6),8-dien-7-yl]acetamide] was tested, and the EC50 was 0.027 nM.
With `Cc1cc(C2CCC(F)(F)CC2)nc2nc([C@H](Cc3cc(F)cc(F)c3)NC(=O)Cn3nc(C(F)F)c4c3C(F)(F)[C@@H]3C[C@H]43)n(-c3ccc(Cl)c4c(NS(C)(=O)=O)nn(C[C@@H](C)N5CC(C)(C)OC(C)(C)C5)c34)c(=O)c12` (atropisomer, axis not shown; (P)) [Example 705, N-[(1S)-1-[(3P)-3-{4-chloro-3-methanesulfonamido-1-[(2R)-2-(2,2,6,6-tetramethylmorpholin-4-yl)propyl]-1H-indazol-7-yl}-7-(4,4-difluorocyclohexyl)-5-methyl-4-oxo-3H,4H-pyrido[2,3-d]pyrimidin-2-yl]-2-(3,5-difluorophenyl)ethyl]-2-[(2S,4R)-9-(difluoromethyl)-5,5-difluoro-7,8-diazatricyclo[4.3.0.0^2,^4]nona-1(6),8-dien-7-yl]acetamide] the EC50 was 0.021 nM.
Compound `Cc1cc(C2CCC(F)(F)CC2)nc2nc([C@H](Cc3cc(F)cc(F)c3)NC(=O)Cn3nc(C4CC4)c4c3C[C@H]3C[C@@H]43)n(-c3ccc(Cl)c4c(NS(C)(=O)=O)nn(CCN5CC(C)(C)OC(C)(C)C5)c34)c(=O)c12` (atropisomer, axis not shown; (P)) [Example 606, N-[(1S)-1-[(3P)-3-{4-chloro-3-methanesulfonamido-1-[2-(2,2,6,6-tetramethylmorpholin-4-yl)ethyl]-1H-indazol-7-yl}-7-(4,4-difluorocyclohexyl)-5-methyl-4-oxo-3H,4H-pyrido[2,3-d]pyrimidin-2-yl]-2-(3,5-difluorophenyl)ethyl]-2-[(2R,4R)-9-cyclopropyl-7,8-diazatricyclo[4.3.0.0^2,^4]nona-1(6),8-dien-7-yl]acetamide] has an EC50 of 0.026 nM.
`COCCCn1nc(NS(C)(=O)=O)c2c(Cl)ccc(-n3c([C@H](Cc4cc(F)cc(F)c4)NC(=O)Cn4nc(C(F)F)c5c4C(F)(F)[C@@H]4C[C@H]54)nc4nc(C5(CCN6C[C@H](F)C[C@H](F)C6)CCC(F)(F)CC5)cc(C)c4c3=O)c21` (atropisomer, axis not shown; (P)) [Example 615] gave an EC50 of 0.027 nM.
`Cc1cc(C2CCC(F)(F)CC2)nc2nc([C@H](Cc3cc(F)cc(F)c3)NC(=O)Cn3nc(C(F)(F)F)c4c3C[C@@H]3C[C@H]43)n(-c3ccc(Cl)c4c(NS(C)(=O)=O)nn(CCN5CC(C)(C)OC(C)(C)C5)c34)c(=O)c12` (atropisomer, axis not shown; (P)) [Example 612, N-[(1S)-1-[(3P)-3-{4-chloro-3-methanesulfonamido-1-[2-(2,2,6,6-tetramethylmorpholin-4-yl)ethyl]-1H-indazol-7-yl}-7-(4,4-difluorocyclohexyl)-5-methyl-4-oxo-3H,4H-pyrido[2,3-d]pyrimidin-2-yl]-2-(3,5-difluorophenyl)ethyl]-2-[(2S,4S)-9-(trifluoromethyl)-7,8-diazatricyclo[4.3.0.0^2,^4]nona-1(6),8-dien-7-yl]acetamide] showed an EC50 of 0.028 nM.
`Cc1cc(C2CCC(F)(F)CC2)nc2nc([C@H](Cc3cc(F)cc(F)c3)NC(=O)Cn3nc([C@H]4CC4(F)F)c4c3C[C@H]3C[C@@H]43)n(-c3ccc(Cl)c4c(NS(C)(=O)=O)nn(CCN5CC(C)(C)OC(C)(C)C5)c34)c(=O)c12` (atropisomer, axis not shown; (P)) [Example 613, N-[(1S)-1-[(3P)-3-{4-chloro-3-methanesulfonamido-1-[2-(2,2,6,6-tetramethylmorpholin-4-yl)ethyl]-1H-indazol-7-yl}-7-(4,4-difluorocyclohexyl)-5-methyl-4-oxo-3H,4H-pyrido[2,3-d]pyrimidin-2-yl]-2-(3,5-difluorophenyl)ethyl]-2-[(2R,4R)-9-[(1R)-2,2-difluorocyclopropyl]-7,8-diazatricyclo[4.3.0.0^2,^4]nona-1(6),8-dien-7-yl]acetamide] gave an EC50 of 0.015 nM.
For `Cc1cc(C2CCC(F)(F)CC2)nc2nc([C@H](Cc3cc(F)cc(F)c3)NC(=O)Cn3nc(C(F)F)c4c3C[C@@H]3C[C@H]43)n(-c3ccc(Cl)c4c(NS(C)(=O)=O)nn(CCN5CC(C)(C)OC(C)(C)C5)c34)c(=O)c12` (atropisomer, axis not shown; (P)) [Example 611, N-[(1S)-1-[(3P)-3-{4-chloro-3-methanesulfonamido-1-[2-(2,2,6,6-tetramethylmorpholin-4-yl)ethyl]-1H-indazol-7-yl}-7-(4,4-difluorocyclohexyl)-5-methyl-4-oxo-3H,4H-pyrido[2,3-d]pyrimidin-2-yl]-2-(3,5-difluorophenyl)ethyl]-2-[(2S,4S)-9-(difluoromethyl)-7,8-diazatricyclo[4.3.0.0^2,^4]nona-1(6),8-dien-7-yl]acetamide], the EC50 was 0.025 nM.
Compound `Cc1cc(C2(F)CCC(F)(F)CC2)nc2nc([C@H](Cc3cc(F)cc(F)c3)NC(=O)Cn3nc(C4CC4)c4c3C[C@@H]3C[C@H]43)n(-c3ccc(Cl)c4c(NS(C)(=O)=O)nn([C@H](C)C(=O)N5C[C@H](F)C[C@H](F)C5)c34)c(=O)c12` (relative stereo) [Example 756, N-[(1S)-1-[(3P)-3-{4-chloro-1-[(2R)-1-[(3R,5S)-3,5-difluoropiperidin-1-yl]-1-oxopropan-2-yl]-3-methanesulfonamido-1H-indazol-7-yl}-5-methyl-4-oxo-7-(1,4,4-trifluorocyclohexyl)-3H,4H-pyrido[2,3-d]pyrimidin-2-yl]-2-(3,5-difluorophenyl)ethyl]-2-[(2R*,4R*)-9-cyclopropyl-7,8-diazatricyclo[4.3.0.0^2,^4]nona-1(6),8-dien-7-yl]acetamide] has an EC50 of 0.037 nM.
`Cc1cc(C2CCC(F)(F)CC2)nc2nc([C@H](Cc3cc(F)cc(F)c3)NC(=O)Cn3nc(C4CC4)c4c3C(F)(F)[C@@H]3C[C@H]43)n(-c3ccc(Cl)c4c(NS(C)(=O)=O)nn(CCN5CC(C)(C)OC(C)(C)C5)c34)c(=O)c12` (atropisomer, axis not shown; (P)) [Example 610, N-[(1S)-1-[(3P)-3-{4-chloro-3-methanesulfonamido-1-[2-(2,2,6,6-tetramethylmorpholin-4-yl)ethyl]-1H-indazol-7-yl}-7-(4,4-difluorocyclohexyl)-5-methyl-4-oxo-3H,4H-pyrido[2,3-d]pyrimidin-2-yl]-2-(3,5-difluorophenyl)ethyl]-2-[(2S,4R)-9-cyclopropyl-5,5-difluoro-7,8-diazatricyclo[4.3.0.0^2,^4]nona-1(6),8-dien-7-yl]acetamide] was tested, and the EC50 was 0.017 nM.
Compound `Cc1cc(C2CCC(F)(F)CC2)nc2nc([C@H](Cc3cc(F)cc(F)c3)NC(=O)Cn3nc(C(F)(F)F)c4c3C(F)(F)[C@@H]3C[C@H]43)n(-c3ccc(Cl)c4c(NS(C)(=O)=O)nn(CCN5CC(C)(C)OC(C)(C)C5)c34)c(=O)c12` (atropisomer, axis not shown; (P)) [Example 609, N-[(1S)-1-[(3P)-3-{4-chloro-3-methanesulfonamido-1-[2-(2,2,6,6-tetramethylmorpholin-4-yl)ethyl]-1H-indazol-7-yl}-7-(4,4-difluorocyclohexyl)-5-methyl-4-oxo-3H,4H-pyrido[2,3-d]pyrimidin-2-yl]-2-(3,5-difluorophenyl)ethyl]-2-[(2S,4R)-5,5-difluoro-9-(trifluoromethyl)-7,8-diazatricyclo[4.3.0.0^2,^4]nona-1(6),8-dien-7-yl]acetamide] has an EC50 of 0.033 nM.
